Results reported in patent US20250388544A1, “HETEROAROMATIC INHIBITORS OF ASTACIN PROTEINASES” (VIVORYON THERAPEUTICS N.V., priority 2019, published 2025).

Tests used:
Assay type in all cases: biochemical
[1] = target: T1, hMeprin β (Homo sapiens, UniProt Q16820); test: Enzymatic assay, quenched peptide substrate cleavage, method B; conditions: geometric mean (geometric SD factor in parentheses); for IC50: read-out: Meprin beta IC50; for Ki: Morrison's equation, read-out: Meprin beta Ki(app)
T1 sequence (Q16820 62-701): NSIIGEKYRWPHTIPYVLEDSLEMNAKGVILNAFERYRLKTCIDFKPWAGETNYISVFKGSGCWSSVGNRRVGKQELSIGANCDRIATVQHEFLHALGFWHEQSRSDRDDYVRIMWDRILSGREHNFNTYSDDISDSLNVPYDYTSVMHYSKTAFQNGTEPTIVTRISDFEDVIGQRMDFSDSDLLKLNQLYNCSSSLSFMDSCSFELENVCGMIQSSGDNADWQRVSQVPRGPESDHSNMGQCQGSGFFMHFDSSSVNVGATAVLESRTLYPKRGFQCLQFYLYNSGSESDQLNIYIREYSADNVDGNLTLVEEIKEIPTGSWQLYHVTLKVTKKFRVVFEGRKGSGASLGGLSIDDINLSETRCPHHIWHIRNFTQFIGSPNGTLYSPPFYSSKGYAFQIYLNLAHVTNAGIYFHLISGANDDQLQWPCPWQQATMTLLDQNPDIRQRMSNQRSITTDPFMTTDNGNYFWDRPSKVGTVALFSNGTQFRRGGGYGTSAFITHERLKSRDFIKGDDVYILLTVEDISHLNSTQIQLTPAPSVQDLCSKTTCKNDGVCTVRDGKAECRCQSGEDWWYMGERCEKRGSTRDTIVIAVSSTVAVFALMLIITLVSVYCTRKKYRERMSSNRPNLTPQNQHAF
Summary of the method: (§1)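 Cleavage of internally quenched peptides was read at 340/420 nm and 30° C., with enzyme at 5e-8 to 2e-10 M and substrate at 0.15–80 μM. Inhibitor solutions contained 1% DMSO and substrate 0.5% DMSO. Method B gave Ki(app) values via Morrison's equation, with kinetics measured in at least duplicate on separate days.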

[2] = target: T2, hMeprin α (Homo sapiens, UniProt Q16819); test: as above; conditions: geometric mean (geometric SD factor in parentheses); for IC50: read-out: Meprin alpha IC50; for Ki: Morrison's equation, read-out: Meprin alpha Ki(app)
T2 sequence (Q16819 66-746): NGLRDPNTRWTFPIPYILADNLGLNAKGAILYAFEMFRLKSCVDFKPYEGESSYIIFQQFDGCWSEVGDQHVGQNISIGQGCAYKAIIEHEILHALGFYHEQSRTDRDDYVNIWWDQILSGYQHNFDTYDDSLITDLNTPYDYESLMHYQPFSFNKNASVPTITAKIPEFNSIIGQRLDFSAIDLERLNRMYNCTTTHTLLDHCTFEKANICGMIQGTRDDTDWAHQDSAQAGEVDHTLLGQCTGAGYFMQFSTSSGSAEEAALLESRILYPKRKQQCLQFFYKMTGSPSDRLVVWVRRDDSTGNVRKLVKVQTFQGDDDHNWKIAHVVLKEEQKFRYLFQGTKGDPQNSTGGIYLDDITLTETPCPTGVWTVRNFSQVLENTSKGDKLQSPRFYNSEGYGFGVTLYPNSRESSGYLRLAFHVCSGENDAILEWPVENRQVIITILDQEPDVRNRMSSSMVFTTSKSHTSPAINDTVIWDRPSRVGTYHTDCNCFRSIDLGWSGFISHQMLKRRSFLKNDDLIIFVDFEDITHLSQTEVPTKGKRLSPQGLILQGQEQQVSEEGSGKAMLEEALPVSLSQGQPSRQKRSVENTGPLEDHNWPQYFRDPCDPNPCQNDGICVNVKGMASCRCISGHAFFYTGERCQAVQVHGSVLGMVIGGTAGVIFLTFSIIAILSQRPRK
Summary of the method: as §1

[3] = target: T3, hADAM 10 (Homo sapiens, UniProt O14672); test: Residual enzyme activity of other metalloproteases; conditions: read-out: Residual enzyme activity ADAM10; for remaining activity at 10 µM: 10 μM inhibitor; for remaining activity at 200 µM: 200 μM inhibitor
T3 construct: purchased R&D systems
T3 sequence (O14672 214-748): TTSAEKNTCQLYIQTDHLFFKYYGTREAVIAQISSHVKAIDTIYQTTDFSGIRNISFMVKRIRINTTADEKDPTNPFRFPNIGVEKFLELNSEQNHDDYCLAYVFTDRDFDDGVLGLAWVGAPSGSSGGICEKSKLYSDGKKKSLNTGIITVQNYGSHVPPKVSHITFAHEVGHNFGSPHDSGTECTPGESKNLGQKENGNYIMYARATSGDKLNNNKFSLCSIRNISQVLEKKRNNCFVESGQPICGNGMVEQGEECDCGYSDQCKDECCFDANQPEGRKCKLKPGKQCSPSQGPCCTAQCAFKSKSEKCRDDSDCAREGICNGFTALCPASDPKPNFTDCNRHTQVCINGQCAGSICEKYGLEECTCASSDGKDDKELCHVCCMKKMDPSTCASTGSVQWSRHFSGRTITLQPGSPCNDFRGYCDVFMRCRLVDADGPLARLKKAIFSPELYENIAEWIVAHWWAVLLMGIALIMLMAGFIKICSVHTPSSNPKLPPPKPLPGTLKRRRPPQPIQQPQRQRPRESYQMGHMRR
Description: (§2) The determination of enzymatic activity was based on the cleavage of internally quenched peptide substrates. A typical assay of 250 μl total volume measured in black 96 well plates consisted of 100 μl buffer, 50 μl enzyme at a final concentration of 5e-8 M to 2e-10 M, 50 μl substrate (0.15 to 80 μM, in buffer, 0.5% DMSO) and 50 μl inhibitor solution (in buffer, 1% DMSO). In case of 125 μl assay volume (black 96 half area well plates) all volumes were cut in half. Enzymatic activity of ADAMs was measured in 384 well plates with 60 μl total assay volume consisting of 20 μl inhibitor, 20 μl buffer, 10 μl enzyme and 10 μl substrate.

[4] = target: T4, hADAM 17 (Homo sapiens, UniProt P78536); test: Residual enzyme activity of other metalloproteases; conditions: read-out: Residual enzyme activity ADAM17; for remaining activity at 10 µM: 10 μM inhibitor; for remaining activity at 200 µM: 200 μM inhibitor
T4 construct: purchased R&D systems
Description: as §2

[5] = target: T5, hMMP 9 (Homo sapiens, UniProt P14780); test: Residual enzyme activity of other metalloproteases; conditions: read-out: Residual enzyme activity MMP9; for remaining activity at 10 µM: 10 μM inhibitor; for remaining activity at 200 µM: 200 μM inhibitor
T5 construct: purchased R&D systems
Description: as §2
MMPs were activated prior to measurement by APMA (p-aminophenylmercuric acetate) treatment according to manufacturer's instructions (R&D systems).

T4 sequence (P78536 215-824): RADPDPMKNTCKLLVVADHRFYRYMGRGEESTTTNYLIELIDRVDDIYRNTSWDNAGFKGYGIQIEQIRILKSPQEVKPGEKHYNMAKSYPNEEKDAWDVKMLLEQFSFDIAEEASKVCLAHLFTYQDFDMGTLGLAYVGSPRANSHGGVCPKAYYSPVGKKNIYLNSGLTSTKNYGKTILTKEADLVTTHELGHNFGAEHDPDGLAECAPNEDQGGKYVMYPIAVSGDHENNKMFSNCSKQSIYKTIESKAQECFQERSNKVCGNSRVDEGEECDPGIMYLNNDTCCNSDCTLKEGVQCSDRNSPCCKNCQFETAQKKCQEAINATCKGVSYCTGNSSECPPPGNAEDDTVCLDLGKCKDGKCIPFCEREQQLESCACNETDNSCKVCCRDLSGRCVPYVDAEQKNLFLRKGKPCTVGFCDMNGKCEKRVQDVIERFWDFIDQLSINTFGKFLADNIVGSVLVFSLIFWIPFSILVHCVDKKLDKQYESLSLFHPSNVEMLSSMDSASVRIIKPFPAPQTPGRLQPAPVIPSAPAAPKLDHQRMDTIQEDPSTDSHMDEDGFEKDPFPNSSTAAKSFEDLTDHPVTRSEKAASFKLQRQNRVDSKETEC
T5 sequence (P14780 107-707 limits assumed): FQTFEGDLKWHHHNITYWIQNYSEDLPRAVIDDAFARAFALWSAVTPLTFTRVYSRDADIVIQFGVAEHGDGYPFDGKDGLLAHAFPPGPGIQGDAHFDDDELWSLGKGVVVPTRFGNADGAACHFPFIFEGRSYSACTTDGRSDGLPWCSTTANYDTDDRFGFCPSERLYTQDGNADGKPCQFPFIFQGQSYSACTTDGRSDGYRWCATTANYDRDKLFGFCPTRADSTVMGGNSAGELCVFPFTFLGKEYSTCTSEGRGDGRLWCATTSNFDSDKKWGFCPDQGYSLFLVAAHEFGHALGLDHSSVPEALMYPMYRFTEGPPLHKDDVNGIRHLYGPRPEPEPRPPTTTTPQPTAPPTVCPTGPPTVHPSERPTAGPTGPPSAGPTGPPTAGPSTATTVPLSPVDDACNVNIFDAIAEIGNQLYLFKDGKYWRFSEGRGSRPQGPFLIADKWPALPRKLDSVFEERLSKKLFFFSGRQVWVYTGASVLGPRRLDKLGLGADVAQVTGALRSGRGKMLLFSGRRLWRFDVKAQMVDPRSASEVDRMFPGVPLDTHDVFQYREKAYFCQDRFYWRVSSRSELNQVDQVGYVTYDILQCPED

SMILES | IC50 [1] [nM] | IC50 [2] [nM] | remaining activity at 10 µM [3] [%] | remaining activity at 200 µM [3] [%] | remaining activity at 10 µM [4] [%] | remaining activity at 200 µM [4] [%] | remaining activity at 10 µM [5] [%] | remaining activity at 200 µM [5] [%] | Ki [1] [nM] | Ki [2] [nM]
O=C(Cc1c(-c2ccccc2)n[nH]c1-c1ccccc1)NO [Example 1, 2-(3,5-Diphenyl-1H-pyrazol-4-yl)ethanehydroxamic acid] | 119 | 1 | 73 | 23 | 61 | 7 | 81 | 27 | – | –
O=C(Cc1c(-c2ccccc2)noc1-c1ccccc1)NO [Example 2, 2-(3,5-Diphenylisoxazol-4-yl)ethanehydroxamic acid] | 586 | 4 | 80 | 22 | 62 | 9 | 86 | 16 | 584 | 4
O=C(CCc1c(-c2ccccc2)n[nH]c1-c1ccccc1)NO [Example 3, 3-(3,5-Diphenyl-1H-pyrazol-4-yl)propanehydroxamic acid] | 9660 | 80 | 66 | 12 | 76 | 27 | 93 | 65 | 9350 | 78
O=C(CCc1c(-c2ccccc2)noc1-c1ccccc1)NO [Example 4, 3-(3,5-Diphenylisoxazol-4-yl)propanehydroxamic acid] | – | – | 75 | 21 | 75 | 24 | 89 | 39 | – | –
O=C(Cn1c(-c2ccccc2)nnc1-c1ccccc1)NO [Example 7, 2-(3,5-Diphenyl-1,2,4-triazol-4-yl)ethanehydroxamic acid] | – | – | 89 | 83 | 90 | 56 | 99 | 54 | – | –
O=C(Cn1c(-c2ccccc2)ccc1-c1ccccc1)NO [Example 9, 2-(2,5-Diphenylpyrrol-1-yl)ethanehydroxamic acid] | – | – | 83 | 29 | 82 | 25 | 92 | 1 | – | –
O=C(Cn1c(-c2ccccc2)nc2ccccc21)NO [Example 13, 2-(2-Phenylbenzimidazol-1-yl)ethanehydroxamic acid] | 1140 | 141 | 87 | 76 | 92 | 56 | 96 | 68 | 1130 | 128
O=C(Cn1c(-c2ccccc2)cc2ccccc21)NO [Example 25, 2-(2-Phenylindol-1-yl)ethanehydroxamic acid] | – | – | 89 | 68 | 88 | 56 | 90 | 53 | – | –
O=C(Cc1c(-c2ccccc2)nn(Cc2ccc(C(=O)O)cc2)c1-c1ccccc1)NO [Example 40, 4-[[4-(2-(Hydroxyamino)-2-oxo-ethyl]-3,5-diphenyl-1H-pyrazol-1-yl]methyl]benzoic acid] | 9 | 0.45 | 91 | 43 | 67 | 9 | 80 | 30 | 9 | 0.38
O=C(Cc1c(-c2ccccc2)nn(Cc2cccc(C(=O)O)c2)c1-c1ccccc1)NO [Example 41, 3-[[4-[2-(Hydroxyamino)-2-oxo-ethyl]-3,5-diphenyl-1H-pyrazol-1-yl]methyl]benzoic acid] | 10 | 0.39 | 92 | 66 | 84 | 25 | 83 | 36 | 11 | 0.33
O=C(Cc1c(-c2ccccc2)nn(Cc2ccc(Cl)c(O)c2F)c1-c1ccccc1)NO [Example 42, 2-[1-(4-Chloro-2-fluoro-3-hydroxybenzyl)-3,5-diphenyl-1H-pyrazol-4-yl]ethanehydroxamic acid] | 10 | 0.16 | 85 | 34 | 72 | 14 | 70 | 14 | 9 | 0.08
O=C(Cc1c(-c2ccccc2)nn(Cc2ccc3c(c2)OCO3)c1-c1ccccc1)NO [Example 43, 2-[1-(1,3-Benzodioxol-5-ylmethyl)-3,5-diphenyl-1H-pyrazol-4-yl]ethanehydroxamic acid] | 310 | 0.75 | 69 | 39 | 21 | 4 | 74 | 60 | 305 | 0.59
COc1cccc(-c2n[nH]c(-c3ccccc3)c2CC(=O)NO)c1 [Example 47, 2-[3-(3-Methoxyphenyl)-5-phenyl-1H-pyrazol-4-yl]ethanehydroxamic acid] | 123 | 1 | 68 | 8 | 52 | 6 | 80 | 33 | 116 | 1
